Results published in patent US8168644B2, “Quinazolinone derivatives as tubulin polymerization inhibitors” (Janssen Pharmaceutica NV, priority 2008, dated 2012).

Experiments:
[1] = tested on: Human prostate cancer PC-3 cells; assay: Anti-proliferative effect, Alamar Blue assay, PC-3; format: cell-based; design: key to PC3 antiproliferative activity pIC50: pIC50 = negative log of IC50 (conc. reducing growth to 50% of control); conditions: 4-day incubation; for IC50: Homo sapiens, 96 h, read-out: PC3 antiproliferative activity pIC50 (converted)
Protocol: Human prostate cancer PC-3 cells obtained from the ATCC were cultured in HAM'S F12 medium supplemented with 1 mM Sodium Pyruvate, 1.5 g/L Sodium Bicarbonate, 50 μg/ml gentamicin, non-essential amino acids and 10% fetal calf serum.
(§1) Resazurin was purchased from Aldrich (Prod. No. 199303). Potassium ferrocyanide, potassium ferricyanide, KH2PO4 and K2HPO4 were purchased from Sigma (Prod. Nos. P9387, P8131, P5655 and P8281, respectively).
(§2) Potassium Phosphate Buffer 0.1 M (PPB) was made as follows: 2.72 gram KH2PO4 and 13.86 gram K2HPO4 were dissolved in 500 ml milli-Q H2O, the pH was adjusted to pH 7.4 and the volume was brought to 1 liter with milli-Q H2O; the buffer was filter sterilised and stored at room temperature. Resazurin stock solution (PPB-A) was prepared fresh by dissolving 45 mg resazurin in 15 ml PBS. 30 mM potassium ferricyanide (PPB-B) was prepared by dissolving 0.987 gram potassium ferricyanide in 100 ml PPB. 30 mM potassium ferrocyanide (PPB-C) was prepared by dissolving 1.266 gram potassium ferrocyanide in 100 ml PPB.
(§3) Mixture of PPB-A, PPB-B and PPB-C was prepared by mixing equal volumes of the respective solutions. Resazurin work solution (herein termed “Alamar Blue” solution) was prepared by diluting said mixture 20× (vol/vol) in PPB and filter sterilising; the Alamar Blue solution could be kept at 4° C. for a maximum of 2 weeks.
(§4) For experiments in 384 wells plates the cells were seeded at a density of 4.5×10^3 cells/ml in Falcon 384-well culture plates (Life Technologies, Merelbeke, Belgium), black with clear bottom, in 45 μl culture medium. Cells were allowed to adhere to plastic for 24 hours. The tested compound was pre-diluted (1/50 in culture medium) and 5 μl pre-diluted compound was added to the wells. Following 4-day incubation, 10 μl of the Alamar Blue solution was added to each well and the cells were further incubated for 4 hours (HCT116) or 24 hours (PC-3) at 37° C. The fluorescence intensity was measured for each well on a Fluorescence plate reader (Fluoroskan, Labsystems, 540 nm excitation and 590 nm emission)
(§5) The antiproliferative activity was calculated as percentage of remaining viable cells in treated versus control (untreated cells) conditions. Within an experiment, the result for each experimental condition is the mean of 3 replicate wells. When appropriate, the experiments were repeated to establish full concentration-response curves. When appropriate, IC50-values (concentration of the drug, needed to reduce cell growth to 50% of the control) were computed using probit analysis for graded data (Finney, D. J., Probit Analyses, 2nd Ed. Chapter 10, Graded Responses, Cambridge University Press, Cambridge 1962). Herein the effects of test compounds are expressed as pIC50 (the negative log value of the IC50-value) (see Table 3).

α-β-Tubulin = α-β-Tubulin polymerization assay; format: biochemical; design: key: a compound showing 0 to 50% inhibition at 20 μM is reported as score 1; Score 2 compounds are defined as compound showing more than 50% inhibition at 20 μM and less than 50% inhibition at 5 μM; a compound showing more than 50% inhibition at 5 μM is reported as score 3; conditions: inhibition of polymerization at 20 μM and 5 μM, reported as score
Protocol: The tubulin polymerization assay is an adaptation of an assay originally described by Bonne, D. et al. (J. Biol. Chem., 1985, 260:2819-25). The assay kit was purchased from Cytoskeleton, Inc. (catalogue number BK011) and the assay was performed as described by the supplier with the following modifications. The assay was run in a 384-well black Proxiplate (Perkin Elmer) and volumes were adapted accordingly. The reactions were carried out in a final volume of 10 μl. Compounds were added to 25 μl of the reaction mix in 96-well PP plates (Corning) on ice and 10 μl of this mixture was dispensed into duplicates of the 384-well Proxiplates pre-warmed to 37° C. in a Fluoroskan Ascent plate reader (Thermo Scientific). Fluorescence measurements were taken every minute for one hour. The maximum slope of each well was determined (linear regression through 4 consecutive points) and polymerization was calculated as a percentage of polymerization observed in the absence of compound. Compounds were first measured at a concentration of 20 μM and then at 5 μM for those showing more than 50% inhibition at 20 μM as compared to the polymerization observed in the absence of compound. Results are reported in Table F-2 as scores defined as: a compound showing 0 to 50% inhibition at 20 μM is reported as score 1; a compound showing more than 50% inhibition at 5 μM is reported as score 3.

[2] = tested on: human prostate cancer PC3 cells; assay: Eb1 cellular assay (Eb1 Comet assay); format: cell-based; conditions: 1 hour treatment, LAC = concentration where Eb1 foci absent in at least 50% of treated cells
Protocol: The Eb1 Comet assay relies on the detection of the Eb1 protein at the plus end of polymerizing microtubules (Mimori-Kiyosue, 2000) using indirect immunofluorescence. Disruption of microtubule dynamics through de-polymerization or stabilization results in a de-localization of Eb1 from the growing microtubule ends and this is visualized by the disappearance of Eb1 containing cytoplasmic foci.
Briefly, human prostate cancer PC3 cells obtained from the American Type Culture Collection were grown in 96-well plates (Greiner, cat. no. 655090) in HAM's F12 medium as recommended by the provider (ATCC). The cells were treated for 1 hour at 37° C. with compounds dissolved in DMSO (0.6% final DMSO concentration). The culture medium was then removed by aspiration and the cells were fixed by adding cold methanol (−20° C.). After a 15 minutes incubation at −20° C., the cells were washed twice with DPBS (Gibco) containing 0.5% Triton X-100. Mouse Eb1 antibody (BD Transduction Laboratories, cat. no. 610534) was added to the cells (1/250 dilution in DPBS containing 1% BSA) and incubated overnight at room temperature. The antibody was subsequently removed and the cells washed twice with DPBS, 0.5% Triton X-100. Secondary goat anti-mouse antibody conjugated to Alexa 488 fluorescent dye (Molecular Probes) was added at a 1/500 dilution in DPBS, 1% BSA and incubated for 1 hour at 37° C. The cells were washed twice with DPBS, 0.5% Triton X-100 and then DPBS containing 0.5% Triton X-100 and 1/5000 Hoechst 33342 (Molecular Probes) was added. Microscopy based Eb1 foci visualization was carried out using an IN Cell Analyser 1000 (Amersham Biosciences) using a 20× objective. Compound dependent microtubule disruption was visually determined by the disappearance in Eb1 foci. The lowest active concentration (LAC) was determined as the concentration where Eb1 foci were absent in at least 50% of the treated cells. Herein the effects of test compounds are expressed as pLAC (the negative log value of the LAC-value) (see Table 3).

[3] = tested on: Human colon carcinoma HCT116 cells; assay: Anti-proliferative effect, Alamar Blue assay, HCT116; format: cell-based; conditions: 4-day incubation; for IC50: Homo sapiens, HCT-116, 96 h, read-out: HCT116 antiproliferative activity pIC50 (converted)
Protocol: Human colon carcinoma HCT116 cells obtained from the ATCC were cultured in McCoy's 5A medium supplemented with 2 mM L-Glutamine, 50 μg/ml gentamicin and 10% heat inactivated fetal calf serum.
as §1, §2, §3, §4, §5

Compound	PC3 antiproliferative activity pIC50 [1]	tubulin polymerization score (α-β-Tubulin)	Eb1 pLAC [2]	HCT116 antiproliferative activity pIC50 [3]	IC50 [1] [µM]	IC50 [3] [µM]	melting point [°C]
CCN1Cc2ccc(C(C)(C#N)Cc3cccc(C#CCOC)c3)cc2NC1=O (stereo not drawn) [Compound 36]	6.6	3 (a compound showing more than 50% inhibition at 5 μM is reported as score 3)	7	6.7	–	–	–
CCN1Cc2ccc([C@@](C)(C#N)[C@@H]3CCc4c(Cl)ccnc43)cc2NC1=O [Compound 14]	–	–	–	–	1.26	0.501	–
CCN1Cc2ccc(C(C)(C#N)Cc3cccc(C#CCO)c3)cc2NC1=O (stereo not drawn) [Compound 11]	–	3 (a compound showing more than 50% inhibition at 5 μM is reported as score 3)	7	–	0.398	0.316	–
CCN1Cc2ccc([C@](C)(C#N)Cc3ccccc3)cc2NC1=O [Compound 4]	–	3 (a compound showing more than 50% inhibition at 5 μM is reported as score 3)	–	–	0.501	0.2	124
CCN1Cc2ccc(C(C)(C#N)CNCc3ccc(C#N)cc3)cc2NC1=O (stereo not drawn) [Compound 12]	–	–	–	–	1.26	0.631	–
CCN1Cc2cc(F)c(C(C)(C#N)Cc3cccc(C#N)c3)cc2NC1=O (stereo not drawn) [Compound 26]	6.3	3 (a compound showing more than 50% inhibition at 5 μM is reported as score 3)	6.5	6.6	–	–	–
CCN1Cc2ccc([C@](C)(C#N)[C@@H]3CCc4c(Cl)ccnc43)cc2NC1=O [Compound 13]	–	–	–	–	0.1	0.0794	226
CCN1Cc2ccc(C(C)(C#N)Cc3cc(Cl)cc(Cl)c3)cc2NC1=O (stereo not drawn) [Compound 20]	6.2	–	6.5	6.4	–	–	–
CCN1Cc2ccc(C(C#N)(CC)Cc3cccc(C#N)c3)cc2NC1=O (stereo not drawn) [Compound 2]	–	3 (a compound showing more than 50% inhibition at 5 μM is reported as score 3)	7	–	0.316	0.316	–
CCN1Cc2ccc(C(C)(C#N)Cc3nc(OC)cc(OC)n3)cc2NC1=O (stereo not drawn) [Compound 18]	6.6	3 (a compound showing more than 50% inhibition at 5 μM is reported as score 3)	–	6.6	–	–	–
CN1Cc2ccc([C@@](C)(C#N)Cc3cccc(C#N)c3)cc2NC1=O [Compound 27]	6.8	3 (a compound showing more than 50% inhibition at 5 μM is reported as score 3)	6.5	7.1	–	–	–
CCN1Cc2ccc(C(C#N)(CC)Cc3nc(OC)cc(OC)n3)cc2NC1=O (stereo not drawn) [Compound 30]	6.0	3 (a compound showing more than 50% inhibition at 5 μM is reported as score 3)	6.5	6.4	–	–	–
CCN1Cc2ccc(C(C)(C#N)Cc3nc4ccccc4s3)cc2NC1=O (stereo not drawn) [Compound 23]	6.3	–	–	6.4	–	–	–
CN1Cc2ccc(C(C)(C#N)Cc3cccc(C#N)c3)cc2NC1=O (stereo not drawn) [Compound 28]	6.5	3 (a compound showing more than 50% inhibition at 5 μM is reported as score 3)	6.5	6.8	–	–	–
CCN1Cc2ccc(C(C)(C#N)Cc3cccc(F)c3)cc2NC1=O (stereo not drawn) [Compound 24]	6.6	–	–	6.8	–	–	–
CCN1Cc2ccc(C(C)(C#N)CCOc3ccc(C#N)cc3)cc2NC1=O (stereo not drawn) [Compound 15]	–	–	–	–	0.2	0.1	–
CCN1Cc2ccc(C(C)(C#N)Cc3cccc(C)c3)cc2NC1=O (stereo not drawn) [Compound 22]	6.4	–	–	6.7	–	–	–
CCN1Cc2ccc(C(C)(C#N)Cc3cccc(C#N)n3)cc2NC1=O (stereo not drawn) [Compound 21]	6.1	2	5.5	6.3	–	–	–
CCN1Cc2ccc(C(C)(C#N)Cc3cc(OC)cc(OC)c3)cc2NC1=O (stereo not drawn) [Compound 19]	6.2	3 (a compound showing more than 50% inhibition at 5 μM is reported as score 3)	6.5	6.4	–	–	–
CCN1Cc2ccc(C(C)(C#N)Cc3ccccc3)cc2NC1=O (stereo not drawn) [Compound 16]	5.9	2	6	6.2	–	–	–
CCN1Cc2ccc(C(C)(C#N)Cc3cccc(C#N)c3)cc2NC1=O (stereo not drawn) [Compound 17]	6.6	3 (a compound showing more than 50% inhibition at 5 μM is reported as score 3)	–	6.8	–	–	–
CCN1Cc2cc(F)c(C(C)(C#N)Cc3nc(OC)cc(OC)n3)cc2NC1=O (stereo not drawn) [Compound 25]	6.3	3 (a compound showing more than 50% inhibition at 5 μM is reported as score 3)	6.5	6.3	–	–	–
